Earlier results, collected in EP2505189B1, “Stabilizing alkylglycoside compositions and method thereof” (Aegis Therapeutics, LLC, priority 2006, dated 2007).

What was measured:
[1] = in water
[2] = tested on: HIV-related peripheral neuropathy; details: in vivo
[3] = Phase I, 1987-1990
isolated nasal cilia = details: in vitro, cilia from 15 human donors

CCCCCCCCCCCCCCO[C@@H]1O[C@H](CO)[C@@H](O[C@@H]2O[C@@H](CO)[C@H](O)[C@@H](O)[C@@H]2O)[C@H](O)[C@H]1O (stereo in doubt) [Tetradecyl maltoside]
CMC [1]: 0.01 mM

CCCCCCCCCCCCCO[C@@H]1O[C@H](CO)[C@@H](OC2OC(CO)C(O)C(O)C2O)[C@H](O)[C@H]1O (stereo in doubt) [Tridecyl maltoside]
CMC [1]: 0.03 mM

C[C@@H](N)C(=O)N[C@@H](CO)C(=O)N[C@H](C(=O)N[C@H](C(=O)N[C@H](C(=O)N[C@@H](CC(N)=O)C(=O)N[C@@H](Cc1ccc(O)cc1)C(=O)N[C@H](C(N)=O)[C@@H](C)O)[C@@H](C)O)[C@@H](C)O)[C@@H](C)O [DAPTA, D-ala^1-Peptide T-amide]
adverse drug effects [2]: No adverse drug effects were noted | toxicity [3]: complete lack of toxicity

CCCCCCCCCCO[C@@H]1O[C@H](CO)[C@@H](O[C@H]2O[C@H](CO)[C@@H](O)[C@H](O)[C@H]2O)[C@H](O)[C@H]1O [Decyl maltoside]
CMC [1]: 1.8 mM

CCCCCCCCCCCCO[C@@H]1O[C@H](CO)[C@@H](O[C@H]2O[C@H](CO)[C@@H](O)[C@H](O)[C@H]2O)[C@H](O)[C@H]1O [Dodecyl β -D-maltoside]
CMC [1]: 0.17 mM

CCCCCCCCO[C@@H]1O[C@H](CO)[C@@H](O[C@H]2O[C@H](CO)[C@@H](O)[C@H](O)[C@H]2O)[C@H](O)[C@H]1O [Octyl maltoside]
CMC [1]: 19.5 mM

Sucrose dodecanoate
CMC [1]: 0.3 mM

benzalkonium chloride [BAC]
effect on isolated nasal cilia (isolated nasal cilia): ciliotoxic | nasal irritation (nasal mucosa; 0.02% (Lange 2004)): no discernible negative effects whatsoever | effect on the nasal mucosal function (nasal mucosa; 0.02% twice a day, two weeks of continual regular use (McMahon 1997)): no detectable effect on the nasal mucosal function | saccharine transport time (nasal mucosa; in vivo tests (Riechelmann 2004)): did not alter saccharine transport time | damage to the nasal mucosa (nasal mucosa; prolonged use of topical formulations, 14 in vivo studies (Marple 2004)): no significant damage to the nasal mucosa
